# Assay results taken from patent US20260224588A1, “BENZODIAZEPINONE-DERIVED INHIBITORS OF EGFR AND HER2” (The Research Foundation for the State University of New York, priority 2023, published 2026).
# Read-outs that look alike come from different tables or passages of the source.
# Assays:
# DMPK = DMPK (Homo sapiens, UniProt Q09013); experiment: KINOMEscan; assay type: binding; settings: 1 μM of compound 4; read-out: POC
# ERK3 = molecular target: T1, ERK3 (Homo sapiens, UniProt Q16659); experiment: KINOMEscan; assay type: binding; settings: 1 μM of compound 4; read-out: POC
# T1 construct: purchased Eurofins DiscoverX Corporation
# FLT3(D835H) = molecular target: T2, FLT3(D835H) (Homo sapiens, UniProt P36888, D835H); experiment: KINOMEscan; assay type: binding; settings: 1 μM of compound 4; read-out: POC
# T2 construct: purchased Eurofins DiscoverX Corporation
# FLT3(D835V) = molecular target: T3, FLT3(D835V) (Homo sapiens, UniProt P36888, D835V); experiment: KINOMEscan; assay type: binding; settings: 1 μM of compound 4; read-out: POC
# T3 construct: purchased Eurofins DiscoverX Corporation
# FLT3-autoinhibited = molecular target: T4, FLT3-autoinhibited (Homo sapiens, UniProt P36888); experiment: KINOMEscan; assay type: binding; settings: 1 μM of compound 4; read-out: POC
# T4 construct: purchased Eurofins DiscoverX Corporation
# FYN = molecular target: T5, FYN (Homo sapiens, UniProt P06241); experiment: KINOMEscan; assay type: binding; settings: 1 μM of compound 4; read-out: POC
# T5 construct: purchased Eurofins DiscoverX Corporation
# HASPIN = molecular target: T6, HASPIN (Homo sapiens, UniProt Q8TF76); experiment: KINOMEscan; assay type: binding; settings: 1 μM of compound 4; read-out: POC
# T6 construct: purchased Eurofins DiscoverX Corporation
# ICK = ICK (Homo sapiens, UniProt Q9UPZ9); experiment: KINOMEscan; assay type: binding; settings: 1 μM of compound 4; read-out: POC
# KIT(V559D) = KIT(V559D) (Homo sapiens, UniProt P10721, V559D); experiment: KINOMEscan; assay type: binding; settings: 1 μM of compound 4; read-out: POC
# MYLK = MYLK (Homo sapiens, UniProt Q15746); experiment: KINOMEscan; assay type: binding; settings: 1 μM of compound 4; read-out: POC
# PAK6 = molecular target: T7, PAK6 (Homo sapiens, UniProt Q9NQU5); experiment: KINOMEscan; assay type: binding; settings: 1 μM of compound 4; read-out: POC
# T7 construct: purchased Eurofins DiscoverX Corporation (KINOMEscan)
# PFCDPK1(P. falciparum) = molecular target: T8, PFCDPK1(P. falciparum) (Plasmodium falciparum, UniProt P62344); experiment: KINOMEscan; assay type: binding; settings: 1 μM of compound 4; read-out: POC
# T8 construct: purchased Eurofins DiscoverX Corporation (KINOMEscan)
# PIK3CA(E545K) = PIK3CA(E545K) (Homo sapiens, UniProt P42336, E545K); experiment: KINOMEscan; assay type: binding; settings: 1 μM of compound 4; read-out: POC
# PKN2 = PKN2 (Homo sapiens, UniProt Q16513); experiment: KINOMEscan; assay type: binding; settings: 1 μM of compound 4; read-out: POC
# [1] = test system: L858R EGFR mutant Ba/F3 cells; experiment: Ba/F3 cellular antiproliferative experiments; assay type: cell-based; settings: Mus musculus, BaF3, 72 h, Ba/F3, 72 hours; read-out: Anti-proliferative EC50 ± SE, LR
# Protocol: (§1) Ba/F3 Cellular Antiproliferative Experiments. The parental Ba/F3 cells was a generous gift from the laboratory of Dr. David Weinstock (in 2014), Dr. Pasi Jänne (2020) and was used to generate the wildtype EGFR, wildtype HER2, L858R, and L858R/T790M EGFR mutant Ba/F3 cells. These cells were previously characterized as described. All Ba/F3 cells were cultured in RPMI1640 media with 10% fetal bovine serum and 1% penicillin and streptomycin. All cell lines were tested negative for Mycoplasma using Mycoplasma Plus PCR Primer Set (Agilent) and were passaged and/or used for no longer than 4 weeks for all experiments. Assay reagents were purchased from MilliporeSigma (Cat #R7017-5G). Ba/F3 cells were plated and treated with increasing concentrations of inhibitors in triplicate for 72 hours. Compounds were dispensed using the Tecan D300e Digital Dispenser. Cellular growth or the inhibition of growth was assessed by resazurin viability assay. All experiments were repeated at least 3 times and values were reported as an average of n=3 with standard deviation.
# [2] = test system: L858R/T790M EGFR mutant Ba/F3 cells; experiment: Ba/F3 cellular antiproliferative experiments; assay type: cell-based; settings: Ba/F3, 72 hours, read-out: Anti-proliferative EC50 ± SE, LR/TM
# Protocol: as §1
# [3] = test system: wildtype HER2 Ba/F3 cells; experiment: Ba/F3 cellular antiproliferative experiments; assay type: cell-based; settings: Mus musculus, BaF3; Ba/F3, 72 hours; read-out: Anti-proliferative EC50 ± SE, HER2
# Protocol: as §1
# [4] = Metabolic stability in Human Liver Microsomes (HLM); assay type: in vitro ADME
# Protocol: Metabolic stability in Human Liver Microsomes (HLM). Pooled liver microsomes from humans (male) were purchased from Sekisui XenoTech, LLC, Kansas City, KS, USA. Metabolic stability assays were performed in the presence of an NADPH-regenerating system consisting of 5 mM glucose-6-phosphate, 5 U/mL glucose-6-phosphate dehydrogenase, and 1 mM NADP^+. Liver microsomes (20 mg/mL), NADPH-regenerating system, and 4 mM MgCl2·6 H2O in 0.1 M TRIS-HCl-buffer (pH 7.4) were preincubated for 5 min at 37° C. and 750 rpm on a shaker. The reaction was started by adding the preheated compound at 10 mM resulting in a final concentration of 0.1 mM. The reaction was quenched at selected time points (0, 10, 20, 30, 60, and 120 min) by pipetting 100 μL of internal standard (ketoprofen) at a concentration of 150 μM in acetonitrile. The samples were vortexed for 30 s and centrifuged (21910 relative centrifugal force, 4° C., 20 min). The supernatant was used directly for LC-MS analysis. All compound incubations were conducted at least in triplicates. Additionally, a negative control containing BSA (20 mg/mL) instead of liver microsomes and a positive control using verapamil instead of compound were performed. A limit of 1% organic solvent during incubation was not exceeded. […]
# Chain of MYLK (Q15746 whole entry): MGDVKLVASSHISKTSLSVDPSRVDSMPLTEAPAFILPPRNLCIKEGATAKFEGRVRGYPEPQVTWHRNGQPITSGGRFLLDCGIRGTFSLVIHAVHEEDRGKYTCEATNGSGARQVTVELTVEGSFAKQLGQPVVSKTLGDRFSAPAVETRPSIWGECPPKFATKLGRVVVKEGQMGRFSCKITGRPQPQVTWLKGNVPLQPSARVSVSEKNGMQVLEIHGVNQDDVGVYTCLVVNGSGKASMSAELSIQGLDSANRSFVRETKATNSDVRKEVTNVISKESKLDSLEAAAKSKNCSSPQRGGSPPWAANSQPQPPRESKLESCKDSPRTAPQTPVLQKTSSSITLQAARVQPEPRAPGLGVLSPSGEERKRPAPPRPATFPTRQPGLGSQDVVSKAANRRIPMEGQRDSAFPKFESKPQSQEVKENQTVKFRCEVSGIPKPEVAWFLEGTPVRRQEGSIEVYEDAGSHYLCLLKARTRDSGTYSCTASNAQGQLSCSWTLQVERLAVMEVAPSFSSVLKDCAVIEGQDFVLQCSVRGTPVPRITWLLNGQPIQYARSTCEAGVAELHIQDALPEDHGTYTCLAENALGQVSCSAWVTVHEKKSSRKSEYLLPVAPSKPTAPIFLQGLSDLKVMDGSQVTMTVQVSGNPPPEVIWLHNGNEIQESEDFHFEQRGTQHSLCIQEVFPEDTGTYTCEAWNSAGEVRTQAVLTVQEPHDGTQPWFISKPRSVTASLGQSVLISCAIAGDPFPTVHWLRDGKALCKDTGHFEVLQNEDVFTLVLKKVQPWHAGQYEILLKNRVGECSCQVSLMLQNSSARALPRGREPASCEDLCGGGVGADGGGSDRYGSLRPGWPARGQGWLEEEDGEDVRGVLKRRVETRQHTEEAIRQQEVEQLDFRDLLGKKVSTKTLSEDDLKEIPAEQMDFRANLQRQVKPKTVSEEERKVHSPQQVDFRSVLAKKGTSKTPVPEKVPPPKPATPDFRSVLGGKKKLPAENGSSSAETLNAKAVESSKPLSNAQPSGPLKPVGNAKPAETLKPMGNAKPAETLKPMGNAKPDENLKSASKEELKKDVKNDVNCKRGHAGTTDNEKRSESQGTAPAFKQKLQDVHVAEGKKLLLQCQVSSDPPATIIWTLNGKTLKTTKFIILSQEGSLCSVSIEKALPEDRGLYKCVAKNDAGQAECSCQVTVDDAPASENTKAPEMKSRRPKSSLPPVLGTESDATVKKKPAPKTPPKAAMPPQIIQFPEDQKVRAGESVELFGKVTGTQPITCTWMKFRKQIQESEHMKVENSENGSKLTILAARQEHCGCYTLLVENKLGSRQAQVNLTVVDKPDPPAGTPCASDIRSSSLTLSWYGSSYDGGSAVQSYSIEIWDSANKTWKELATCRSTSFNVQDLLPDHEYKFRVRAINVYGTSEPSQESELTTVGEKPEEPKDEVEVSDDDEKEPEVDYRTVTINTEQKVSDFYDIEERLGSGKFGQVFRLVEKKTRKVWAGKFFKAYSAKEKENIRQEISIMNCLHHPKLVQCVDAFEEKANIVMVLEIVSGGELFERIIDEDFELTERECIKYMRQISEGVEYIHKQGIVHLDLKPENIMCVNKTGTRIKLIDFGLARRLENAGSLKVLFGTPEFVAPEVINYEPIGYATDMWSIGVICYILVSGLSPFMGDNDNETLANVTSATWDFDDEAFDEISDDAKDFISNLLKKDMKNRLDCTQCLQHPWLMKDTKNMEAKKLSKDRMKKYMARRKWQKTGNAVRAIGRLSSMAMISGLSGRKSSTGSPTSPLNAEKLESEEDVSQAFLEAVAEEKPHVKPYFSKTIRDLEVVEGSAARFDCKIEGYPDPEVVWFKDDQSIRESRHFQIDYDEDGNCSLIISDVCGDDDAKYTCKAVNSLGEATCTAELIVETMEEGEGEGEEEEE
# Chain of ICK (Q9UPZ9 whole entry): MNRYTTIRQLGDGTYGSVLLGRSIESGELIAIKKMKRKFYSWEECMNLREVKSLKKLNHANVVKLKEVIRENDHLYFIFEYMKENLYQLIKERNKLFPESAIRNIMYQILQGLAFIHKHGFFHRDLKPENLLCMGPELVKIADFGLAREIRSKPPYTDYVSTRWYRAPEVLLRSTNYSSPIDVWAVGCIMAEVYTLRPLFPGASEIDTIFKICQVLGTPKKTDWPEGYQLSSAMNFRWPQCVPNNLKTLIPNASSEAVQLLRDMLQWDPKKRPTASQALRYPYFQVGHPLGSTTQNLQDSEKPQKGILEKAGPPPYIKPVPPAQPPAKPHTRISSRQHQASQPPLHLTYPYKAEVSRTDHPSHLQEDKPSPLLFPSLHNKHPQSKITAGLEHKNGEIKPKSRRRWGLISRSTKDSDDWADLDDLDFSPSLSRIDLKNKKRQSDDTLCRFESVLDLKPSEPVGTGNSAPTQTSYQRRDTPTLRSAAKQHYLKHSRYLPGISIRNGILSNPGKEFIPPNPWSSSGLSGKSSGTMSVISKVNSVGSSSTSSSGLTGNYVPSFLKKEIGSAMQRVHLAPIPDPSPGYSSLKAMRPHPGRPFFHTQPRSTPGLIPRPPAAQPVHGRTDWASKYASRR
# T7 sequence (Q9NQU5 whole entry): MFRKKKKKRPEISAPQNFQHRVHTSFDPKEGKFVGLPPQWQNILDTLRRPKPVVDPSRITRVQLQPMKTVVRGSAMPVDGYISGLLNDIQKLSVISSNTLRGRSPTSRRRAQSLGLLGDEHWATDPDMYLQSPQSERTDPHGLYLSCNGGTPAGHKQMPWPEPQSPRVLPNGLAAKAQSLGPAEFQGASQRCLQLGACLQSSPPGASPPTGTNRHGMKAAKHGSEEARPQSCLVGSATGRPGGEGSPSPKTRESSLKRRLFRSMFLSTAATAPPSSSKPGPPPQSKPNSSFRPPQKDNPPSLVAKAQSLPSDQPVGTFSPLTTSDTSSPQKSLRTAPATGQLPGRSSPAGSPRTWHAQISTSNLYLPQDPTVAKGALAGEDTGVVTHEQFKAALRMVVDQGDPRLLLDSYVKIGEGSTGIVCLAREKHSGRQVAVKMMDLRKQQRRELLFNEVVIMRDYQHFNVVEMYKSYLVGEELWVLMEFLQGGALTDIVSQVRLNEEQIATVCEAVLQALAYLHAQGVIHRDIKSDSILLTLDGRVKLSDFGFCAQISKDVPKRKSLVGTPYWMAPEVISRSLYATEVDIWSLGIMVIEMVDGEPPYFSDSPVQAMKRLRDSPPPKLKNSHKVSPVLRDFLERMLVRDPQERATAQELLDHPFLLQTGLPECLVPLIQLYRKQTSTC
# T5 sequence (P06241 whole entry): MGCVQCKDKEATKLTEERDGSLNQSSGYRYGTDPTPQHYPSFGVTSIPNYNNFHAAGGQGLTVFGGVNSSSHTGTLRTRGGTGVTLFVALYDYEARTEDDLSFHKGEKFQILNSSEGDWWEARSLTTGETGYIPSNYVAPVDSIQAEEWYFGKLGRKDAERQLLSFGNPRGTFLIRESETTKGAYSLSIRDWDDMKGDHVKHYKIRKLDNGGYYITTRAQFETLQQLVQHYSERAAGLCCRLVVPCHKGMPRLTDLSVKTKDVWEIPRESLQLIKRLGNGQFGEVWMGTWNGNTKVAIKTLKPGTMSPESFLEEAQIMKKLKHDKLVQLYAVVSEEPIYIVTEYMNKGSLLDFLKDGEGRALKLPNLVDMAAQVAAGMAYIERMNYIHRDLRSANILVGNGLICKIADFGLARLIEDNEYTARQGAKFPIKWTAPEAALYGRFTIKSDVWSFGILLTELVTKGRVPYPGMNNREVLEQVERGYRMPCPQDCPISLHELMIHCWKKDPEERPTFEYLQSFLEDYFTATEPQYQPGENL
# Chain of KIT(V559D) (P10721 26-976 V559D): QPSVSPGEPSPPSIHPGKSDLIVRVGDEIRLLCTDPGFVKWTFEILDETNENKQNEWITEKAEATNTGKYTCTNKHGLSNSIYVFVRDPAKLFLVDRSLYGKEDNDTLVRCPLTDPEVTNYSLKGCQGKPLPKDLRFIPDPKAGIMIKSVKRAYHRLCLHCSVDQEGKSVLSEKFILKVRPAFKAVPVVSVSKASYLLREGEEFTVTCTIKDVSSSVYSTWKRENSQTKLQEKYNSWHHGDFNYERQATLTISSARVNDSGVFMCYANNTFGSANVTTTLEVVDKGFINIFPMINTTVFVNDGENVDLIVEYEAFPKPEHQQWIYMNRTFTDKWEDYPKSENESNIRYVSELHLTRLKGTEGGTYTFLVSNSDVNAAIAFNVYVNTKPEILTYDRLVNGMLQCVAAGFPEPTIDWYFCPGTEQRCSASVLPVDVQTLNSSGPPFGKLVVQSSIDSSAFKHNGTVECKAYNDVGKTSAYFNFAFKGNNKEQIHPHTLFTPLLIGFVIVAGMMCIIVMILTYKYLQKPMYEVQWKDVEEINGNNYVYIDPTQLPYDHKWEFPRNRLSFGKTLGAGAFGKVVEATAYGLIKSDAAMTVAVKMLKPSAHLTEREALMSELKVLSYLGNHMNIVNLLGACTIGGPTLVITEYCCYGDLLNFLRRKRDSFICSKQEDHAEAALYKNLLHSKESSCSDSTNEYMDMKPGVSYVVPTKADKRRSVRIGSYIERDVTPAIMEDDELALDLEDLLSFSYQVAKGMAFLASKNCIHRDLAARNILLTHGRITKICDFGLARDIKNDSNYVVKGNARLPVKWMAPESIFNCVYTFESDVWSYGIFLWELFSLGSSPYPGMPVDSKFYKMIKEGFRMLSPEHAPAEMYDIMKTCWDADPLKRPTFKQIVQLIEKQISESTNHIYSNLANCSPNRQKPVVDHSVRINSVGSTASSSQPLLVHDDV
smiles,measurement,setting,value
"C=CC(=O)Nc1ccc(OC)c(Nc2cc(-c3[nH]c(CC)nc3-c3cccc(NC(=O)c4cccc5c4NC(=O)c4ccccc4N5)c3)ccn2)c1 [Compound 4, N-(3-(5-(2-((5-Acrylamido-2-methoxyphenyl)amino)pyridin-4-yl)-2-ethyl-1H-imidazol-4-yl)phenyl)-11-oxo-10,11-dihydro-5H-dibenzo[b,e][1,4]diazepine-9-carboxamide]",remaining binding at 1 µM,DMPK,45%
same,remaining binding at 1 µM,ERK3,100%
same,remaining binding at 1 µM,FLT3(D835H),92%
same,remaining binding at 1 µM,FLT3(D835V),100%
same,remaining binding at 1 µM,FLT3-autoinhibited,100%
same,remaining binding at 1 µM,FYN,64%
same,remaining binding at 1 µM,HASPIN,100%
same,remaining binding at 1 µM,ICK,100%
same,remaining binding at 1 µM,KIT(V559D),100%
same,remaining binding at 1 µM,MYLK,84%
same,remaining binding at 1 µM,PAK6,93%
same,remaining binding at 1 µM,PFCDPK1(P. falciparum),87%
same,remaining binding at 1 µM,PIK3CA(E545K),100%
same,remaining binding at 1 µM,PKN2,100%
same,EC50,[1],~200 nM
same,EC50,[2],770 ± 390 nM
same,EC50,"[2]; Mus musculus, BaF3, 72 h",~750 nM
same,EC50,[3],1930 ± 1010 nM
same,Metabolic stability in liver microsomes,[4],metabolically stable
